Source: paper PMC3758386 (Psychopharmacology, 2013)
pKi: −log10 of the molar value. Several values for one entry are separate records, joined by “and”; a condition that tells them apart may be missing. Identical values can stand only once.

Key:
K+ Channel hERG = K+ Channel hERG (Homo sapiens, UniProt Q12809); assay: receptor screen, K+ Channel hERG; format: binding; settings: from Ki values of Table 2
[1] = system: extracellular DA levels in the NAC shell; assay: In vivo microdialysis, extracellular DA in NAC shell; settings: rat; for rate of increase in DA concentrations: ±SEM; for DA concentrations in NAC shell at times of conditioning sessions compared with 3.0 mg/kg cocaine (165% of basal): pretreatment 0, 45, 90 min
rats = assay: Place conditioning; format: in vivo; settings: rat
Y335A mutant DAT = settings: transfected cells, cited from earlier work
DAT = assay: radioligand binding, DAT; settings: from Ki values of Table 2
Adenosine A1 = biological target: T1, Adenosine A1 (Homo sapiens, UniProt P30542); assay: receptor screen, Adenosine A1; format: binding; settings: [3H]DPCPX, inactive = displacement at 10,000 nM less than 75%
T1 sequence (P30542 1-326): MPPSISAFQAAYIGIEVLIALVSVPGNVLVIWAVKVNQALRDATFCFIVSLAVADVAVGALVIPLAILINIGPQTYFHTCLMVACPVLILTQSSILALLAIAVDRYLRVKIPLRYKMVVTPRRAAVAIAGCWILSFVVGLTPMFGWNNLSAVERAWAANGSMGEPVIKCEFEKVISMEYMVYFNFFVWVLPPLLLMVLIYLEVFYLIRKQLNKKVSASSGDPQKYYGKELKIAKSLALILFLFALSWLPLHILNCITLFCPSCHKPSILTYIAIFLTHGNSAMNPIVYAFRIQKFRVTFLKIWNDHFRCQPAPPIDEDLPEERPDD

Dopamine D2L = Dopamine D2L (Homo sapiens, UniProt P14416); assay: receptor screen, Dopamine D2L; format: binding; settings: inactive = displacement at 10,000 nM less than 75%
Chain of Dopamine D2L (P14416 whole entry): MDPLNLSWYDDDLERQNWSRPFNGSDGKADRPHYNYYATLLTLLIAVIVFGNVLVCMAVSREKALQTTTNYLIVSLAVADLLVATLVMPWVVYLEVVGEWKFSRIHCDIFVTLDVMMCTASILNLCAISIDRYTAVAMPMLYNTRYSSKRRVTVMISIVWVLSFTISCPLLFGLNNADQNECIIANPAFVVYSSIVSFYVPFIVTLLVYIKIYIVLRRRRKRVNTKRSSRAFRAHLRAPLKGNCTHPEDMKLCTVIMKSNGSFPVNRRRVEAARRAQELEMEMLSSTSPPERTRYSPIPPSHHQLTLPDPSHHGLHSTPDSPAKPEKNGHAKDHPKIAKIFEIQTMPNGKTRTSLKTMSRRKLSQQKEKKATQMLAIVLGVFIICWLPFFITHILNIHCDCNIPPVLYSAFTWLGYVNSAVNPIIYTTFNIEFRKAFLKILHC

Estrogen ERα = Estrogen ERα (Homo sapiens, UniProt P03372); assay: receptor screen, Estrogen ERα; format: binding; settings: inactive = displacement at 10,000 nM less than 75%
Chain of Estrogen ERα (P03372 whole entry): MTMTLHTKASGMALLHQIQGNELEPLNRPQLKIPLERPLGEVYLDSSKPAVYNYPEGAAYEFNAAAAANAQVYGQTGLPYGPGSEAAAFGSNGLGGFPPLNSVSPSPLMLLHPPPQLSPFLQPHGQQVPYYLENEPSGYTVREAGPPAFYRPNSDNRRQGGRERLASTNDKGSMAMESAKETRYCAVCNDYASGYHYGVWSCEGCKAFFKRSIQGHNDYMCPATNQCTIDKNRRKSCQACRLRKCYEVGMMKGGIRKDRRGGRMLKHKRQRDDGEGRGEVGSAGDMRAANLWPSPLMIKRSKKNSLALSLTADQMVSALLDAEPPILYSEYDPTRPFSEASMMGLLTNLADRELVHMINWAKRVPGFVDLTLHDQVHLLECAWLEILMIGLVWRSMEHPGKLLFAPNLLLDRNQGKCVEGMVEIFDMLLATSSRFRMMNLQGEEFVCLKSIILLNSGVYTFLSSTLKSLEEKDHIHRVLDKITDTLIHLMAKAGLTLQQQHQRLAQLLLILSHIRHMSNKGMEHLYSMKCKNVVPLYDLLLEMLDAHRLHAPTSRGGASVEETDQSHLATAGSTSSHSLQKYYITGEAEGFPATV

Glucocorticoid = biological target: T2, Glucocorticoid (Homo sapiens, UniProt P04150); assay: receptor screen, Glucocorticoid; format: binding; settings: inactive = displacement at 10,000 nM less than 75%
T2 sequence (P04150 1-777): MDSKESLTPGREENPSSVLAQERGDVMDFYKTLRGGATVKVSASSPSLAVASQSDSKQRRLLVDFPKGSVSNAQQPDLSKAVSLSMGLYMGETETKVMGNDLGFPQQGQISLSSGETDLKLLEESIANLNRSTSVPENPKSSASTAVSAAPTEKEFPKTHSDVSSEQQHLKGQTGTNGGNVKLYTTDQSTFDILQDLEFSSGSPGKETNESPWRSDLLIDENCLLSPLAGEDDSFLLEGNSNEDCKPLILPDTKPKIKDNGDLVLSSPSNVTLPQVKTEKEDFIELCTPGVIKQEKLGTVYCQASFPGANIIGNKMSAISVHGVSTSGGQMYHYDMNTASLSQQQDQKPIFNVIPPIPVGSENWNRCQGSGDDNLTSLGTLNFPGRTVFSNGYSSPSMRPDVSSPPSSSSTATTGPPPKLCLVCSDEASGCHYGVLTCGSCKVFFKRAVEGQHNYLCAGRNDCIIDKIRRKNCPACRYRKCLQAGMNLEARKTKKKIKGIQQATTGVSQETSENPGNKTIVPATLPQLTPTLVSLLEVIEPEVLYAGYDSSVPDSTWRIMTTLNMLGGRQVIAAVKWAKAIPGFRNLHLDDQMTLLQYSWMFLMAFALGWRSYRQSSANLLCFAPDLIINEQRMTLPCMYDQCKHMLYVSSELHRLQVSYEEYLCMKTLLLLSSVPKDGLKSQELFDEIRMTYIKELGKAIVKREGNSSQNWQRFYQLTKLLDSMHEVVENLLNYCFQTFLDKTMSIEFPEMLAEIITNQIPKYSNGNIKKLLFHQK

Muscarinic M2 = biological target: T3, Muscarinic M2 (Homo sapiens, UniProt P08172); assay: receptor screen, Muscarinic M2; format: binding; settings: read-out: Ki Muscarinic M2, [3H]N-methylscopolamine
T3 sequence (P08172 1-466): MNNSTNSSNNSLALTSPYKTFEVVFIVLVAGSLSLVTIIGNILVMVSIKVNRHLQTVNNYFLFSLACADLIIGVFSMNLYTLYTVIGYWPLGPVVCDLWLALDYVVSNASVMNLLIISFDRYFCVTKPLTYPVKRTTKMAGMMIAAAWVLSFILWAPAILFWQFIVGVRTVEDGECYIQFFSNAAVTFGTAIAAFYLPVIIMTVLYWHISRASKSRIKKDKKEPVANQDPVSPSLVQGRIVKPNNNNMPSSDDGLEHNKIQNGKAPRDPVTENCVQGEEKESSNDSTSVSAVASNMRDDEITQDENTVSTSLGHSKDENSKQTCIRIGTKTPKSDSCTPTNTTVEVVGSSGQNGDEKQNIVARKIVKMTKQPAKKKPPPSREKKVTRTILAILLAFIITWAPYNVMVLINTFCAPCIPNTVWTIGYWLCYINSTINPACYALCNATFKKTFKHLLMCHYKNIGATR

Muscarinic M3 = Muscarinic M3 (Homo sapiens, UniProt P20309); assay: receptor screen, Muscarinic M3; format: binding; settings: read-out: Ki Muscarinic M3, [3H]N-methylscopolamine
Chain of Muscarinic M3 (P20309 whole entry): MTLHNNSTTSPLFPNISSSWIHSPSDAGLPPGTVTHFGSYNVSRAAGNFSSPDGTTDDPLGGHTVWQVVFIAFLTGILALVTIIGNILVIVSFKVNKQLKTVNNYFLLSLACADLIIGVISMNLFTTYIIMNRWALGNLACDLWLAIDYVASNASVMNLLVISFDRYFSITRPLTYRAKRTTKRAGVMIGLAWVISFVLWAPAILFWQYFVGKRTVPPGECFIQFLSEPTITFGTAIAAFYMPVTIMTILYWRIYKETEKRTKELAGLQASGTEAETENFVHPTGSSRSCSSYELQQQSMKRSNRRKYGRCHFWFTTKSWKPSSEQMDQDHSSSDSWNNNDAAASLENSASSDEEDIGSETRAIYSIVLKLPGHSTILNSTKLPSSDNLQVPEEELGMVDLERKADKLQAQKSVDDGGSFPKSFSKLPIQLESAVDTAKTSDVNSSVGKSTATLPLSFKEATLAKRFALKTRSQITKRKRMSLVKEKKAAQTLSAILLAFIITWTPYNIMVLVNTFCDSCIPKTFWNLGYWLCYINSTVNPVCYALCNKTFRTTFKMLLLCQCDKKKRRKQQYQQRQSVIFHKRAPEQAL

Progesterone = biological target: T4, Progesterone (Bos taurus, UniProt F1N712); assay: receptor screen, Progesterone; format: binding, Bovine; settings: [3H]R-5020, inactive = displacement at 10,000 nM less than 75%
T4 sequence (F1N712 1-914): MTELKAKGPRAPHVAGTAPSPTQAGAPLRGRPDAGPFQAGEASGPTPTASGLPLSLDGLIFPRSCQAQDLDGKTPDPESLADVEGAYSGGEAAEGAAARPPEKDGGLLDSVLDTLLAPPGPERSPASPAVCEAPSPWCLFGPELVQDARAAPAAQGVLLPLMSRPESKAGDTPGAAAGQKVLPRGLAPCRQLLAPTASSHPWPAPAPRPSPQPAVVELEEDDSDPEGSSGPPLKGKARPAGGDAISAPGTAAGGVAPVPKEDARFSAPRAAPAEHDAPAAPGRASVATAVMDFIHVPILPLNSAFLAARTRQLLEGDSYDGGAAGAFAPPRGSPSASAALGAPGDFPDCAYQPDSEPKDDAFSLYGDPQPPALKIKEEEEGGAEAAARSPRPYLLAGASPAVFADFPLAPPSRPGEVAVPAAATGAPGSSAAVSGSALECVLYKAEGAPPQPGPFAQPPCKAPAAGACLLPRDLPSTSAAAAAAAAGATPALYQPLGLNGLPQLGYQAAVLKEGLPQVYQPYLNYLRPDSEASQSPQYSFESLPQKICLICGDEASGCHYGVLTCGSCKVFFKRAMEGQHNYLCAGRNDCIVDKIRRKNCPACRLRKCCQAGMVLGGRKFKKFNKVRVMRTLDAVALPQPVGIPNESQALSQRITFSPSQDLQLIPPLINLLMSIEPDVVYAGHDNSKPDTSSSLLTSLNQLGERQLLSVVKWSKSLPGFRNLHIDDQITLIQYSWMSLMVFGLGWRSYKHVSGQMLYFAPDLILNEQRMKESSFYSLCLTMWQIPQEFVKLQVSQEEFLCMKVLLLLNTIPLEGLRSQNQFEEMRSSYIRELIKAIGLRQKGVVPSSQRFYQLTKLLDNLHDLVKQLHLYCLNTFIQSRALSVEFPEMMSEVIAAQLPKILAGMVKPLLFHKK

Testosterone = biological target: T5, Testosterone (Rattus norvegicus, UniProt P15207); assay: receptor screen, Testosterone; format: binding; settings: inactive = displacement at 10,000 nM less than 75%
T5 sequence (P15207 651-882 limits assumed): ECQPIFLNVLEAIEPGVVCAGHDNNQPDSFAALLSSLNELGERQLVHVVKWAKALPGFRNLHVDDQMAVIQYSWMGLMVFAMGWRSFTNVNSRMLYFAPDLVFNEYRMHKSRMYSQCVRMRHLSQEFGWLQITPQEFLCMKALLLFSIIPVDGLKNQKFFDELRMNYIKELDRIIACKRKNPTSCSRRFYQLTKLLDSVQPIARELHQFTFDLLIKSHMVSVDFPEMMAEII

[2] = 10 mg/kg i.p., initial phase, first 30 min (cocaine: up to the maximum)
[3] = i.p. (1 to 10 mg/kg), injected immediately before conditioning sessions

Chain of K+ Channel hERG (Q12809 whole entry): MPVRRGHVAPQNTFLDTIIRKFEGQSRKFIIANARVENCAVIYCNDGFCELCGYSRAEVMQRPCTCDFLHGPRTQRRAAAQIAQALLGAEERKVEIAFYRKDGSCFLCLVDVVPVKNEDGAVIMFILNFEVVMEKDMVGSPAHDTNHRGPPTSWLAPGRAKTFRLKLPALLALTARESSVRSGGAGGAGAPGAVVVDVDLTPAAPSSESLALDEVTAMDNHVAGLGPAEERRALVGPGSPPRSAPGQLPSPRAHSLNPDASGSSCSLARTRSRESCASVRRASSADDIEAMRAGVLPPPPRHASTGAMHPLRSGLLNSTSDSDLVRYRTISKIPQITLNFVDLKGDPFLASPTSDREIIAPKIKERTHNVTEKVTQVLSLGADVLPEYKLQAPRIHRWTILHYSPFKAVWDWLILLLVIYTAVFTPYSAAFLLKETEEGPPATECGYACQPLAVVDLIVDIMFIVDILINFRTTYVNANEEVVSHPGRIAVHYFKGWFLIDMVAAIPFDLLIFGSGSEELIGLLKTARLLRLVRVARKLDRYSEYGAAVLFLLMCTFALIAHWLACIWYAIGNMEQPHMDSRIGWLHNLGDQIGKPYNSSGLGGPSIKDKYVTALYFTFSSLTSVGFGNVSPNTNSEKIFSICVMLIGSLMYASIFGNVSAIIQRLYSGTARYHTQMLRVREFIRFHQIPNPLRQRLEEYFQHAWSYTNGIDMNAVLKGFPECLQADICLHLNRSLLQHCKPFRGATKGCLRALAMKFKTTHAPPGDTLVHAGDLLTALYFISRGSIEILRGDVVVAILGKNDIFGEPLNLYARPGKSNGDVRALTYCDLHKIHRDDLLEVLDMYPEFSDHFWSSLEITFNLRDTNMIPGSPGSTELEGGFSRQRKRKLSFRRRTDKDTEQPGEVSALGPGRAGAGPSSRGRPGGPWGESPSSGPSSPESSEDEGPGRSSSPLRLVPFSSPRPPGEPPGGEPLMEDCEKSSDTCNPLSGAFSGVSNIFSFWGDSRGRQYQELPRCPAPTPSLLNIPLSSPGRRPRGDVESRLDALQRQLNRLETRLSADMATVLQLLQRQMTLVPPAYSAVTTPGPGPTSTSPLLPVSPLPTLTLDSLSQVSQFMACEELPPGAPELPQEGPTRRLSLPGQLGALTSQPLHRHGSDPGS

Compound	selectivity K+ hERG channel over the DAT (K+ Channel hERG)	effect on dialysate DA levels from the NAC shell ([1]; 1.0 mg/kg i.p.)	effect on dialysate DA levels from the NAC shell ([1]; 3.0 mg/kg i.p.)	DA concentrations in NAC shell at times of conditioning sessions compared with 3.0 mg/kg cocaine (165% of basal) ([1]; 3.0 mg/kg i.p.)	duration of increase in DA levels ([1]; 10 mg/kg i.p.)	time after injection at which DA exceeded 165% of basal values ([1]; 10 mg/kg i.p.) [min]	time after injection until which DA increase continued (peak) ([1]; 10 mg/kg i.p.)	rate of increase in DA concentrations [1, 2]	DA concentrations in NAC shell at times of conditioning sessions compared with 3.0 mg/kg cocaine (165% of basal) ([1]; 10.0 mg/kg i.p.)	place conditioning (time allocated to compound-paired compartment) (rats; [3])	effect on dialysate DA levels from the NAC shell ([1]; 10 mg/kg i.p.)	other results
CCOC(=O)[C@@H]1C(OC(c2ccc(Cl)cc2)c2ccc(Cl)cc2)C[C@@H]2CC[C@H]1N2C (mixture of isomers) [MFZ 4-86, (±)-2α-carboethoxy-3R-[bis(4-chlorophenyl)methoxy]tropane]	~ 20 fold	increases in DA that did not achieve statistical significance	also increased DA concentrations, though less than at the higher dose	levels that approximated those of cocaine in all but the first 30 min	remained elevated for the entire five-hr session	20	about 120 min	6.74 (±0.371) %/min	levels that exceeded those of the 3.0 mg/kg dose of cocaine at all pretreatment times	without significant place-conditioning effects	–	time after injection at which DA exceeded 165% of basal values ([1]; 3.0 mg/kg i.p.): 50 min; rate of increase in DA concentrations ([1]; 3.0 mg/kg i.p., initial phase (cocaine: up to the maximum)): 3.05 (±0.270) %/min; potency in Y335A mutant DAT relative to wild-type DAT (fold lower) (Y335A mutant DAT; ref Loland et al. 2008): ~13 fold
COC(=O)[C@H]1[C@@H](OC(=O)c2ccccc2)C[C@@H]2CC[C@H]1N2C [cocaine, (−)-cocaine, reference compound]	–	–	significantly increased extracellular DA concentrations	–	–	–	–	11.4 (±0.860) %/min	–	–	significantly increased extracellular DA concentrations	rate of increase in DA concentrations ([1]; 3.0 mg/kg i.p., initial phase (cocaine: up to the maximum), 3 mg/kg): 4.84 (±0.359) %/min and 4.84 %/min; place conditioning (time allocated to compound-paired compartment) (rats; i.p., each dose tested, injected immediately before sessions): significant place conditioning; potency in Y335A mutant DAT relative to wild-type DAT (Y335A mutant DAT; ref Loland et al. 2002): reduced by about two orders of magnitude
COC(=O)[C@@H]1C(OC(c2ccc(Cl)cc2)c2ccc(Cl)cc2)C[C@@H]2CC[C@H]1N2C (mixture of isomers) [MFZ 4-87, (±)-2α-carbomethoxy-3R-[bis(4-chlorophenyl)methoxy]tropane]	~ 20 fold	–	–	levels that approximated those of cocaine in all but the first 30 min	≥ 4 h	–	about 160 min	5.59 (±0.712) %/min	levels that exceeded those of the 3.0 mg/kg dose of cocaine at all pretreatment times	did not produce a change in allocation of time to the compound-paired compartment	–	selectivity for the DAT compared to any other site assayed (DAT): ~ 30 fold; increase in dialysate DA concentrations ([1]; 1.0 mg/kg i.p.): ≤ 165 % of basal levels; increase in dialysate DA concentrations ([1]; 3.0 mg/kg i.p., slightly exceeded): exceeded 165 % of basal levels; maximum / maintained DA concentration ([1]; 10 mg/kg i.p.): about 350 % of basal levels
CN1C2CCC1CC(OC(c1ccc(Cl)cc1)c1ccc(Cl)cc1)C2 (stereo not drawn) [4,4-diCl-BZT, 4′-chloro-4″-chloro-3α-(diphenylmethoxy)tropane]	–	did not significantly affect DA levels	did not significantly affect DA levels	–	–	≤ 20	about 140 min	–	–	without significant place-conditioning effects	significant increase in DA levels	Ki Adenosine A1 (Adenosine A1): inactive; Ki Dopamine D2L (Dopamine D2L): inactive; Ki Estrogen ERα (Estrogen ERα): inactive; Ki Glucocorticoid (Glucocorticoid): inactive; pKi (Muscarinic M2): 6.19; pKi (Muscarinic M3): 8.00; Ki Progesterone (Progesterone): inactive; Ki Testosterone (Testosterone): inactive
